Assay results as given in US6303577A, “Use of a peptide compound in the treatment of systemic lupus erythematosus” (Tecnogen S.C.p.A., priority 1998, dated 2001).

Columns and labels:
MRL/Ipr mice [1] = experiment: Histopathologic examination of renal tissue; format: in vivo, mouse; settings: hematoxylin and eosin, light microscope
Procedure: (§1) In vivo studies on the activity of the peptide compounds of formula (I) were carried out by using an experimental animal model of human Systemic Lupus Erythematosus. MRL/Ipr, NZB/NZW or BXSB denote mouse strains that spontaneously develop an autoimmune syndrome having notable similarities to human Systemic Lupus Erythematosus. The MRL-Ipr/Ipr strain is homozigotic for Ipr gene. The lpr mutation causes functional defects in the Fas Ag. Fas belongs to the TNF receptor family and mediates apoptosis (Watanabe-Fukunaga, R. et al., "Nature", 356, 314, 1992; Itoh, N., et al., "Cell", 66, 233, 1991; Murphy, E. D., "Immunological defects in Laboratory Animals", 2, 143, 1981; Steinberg, A. D., "Semin. Immunol.", 6, 55, 1994). Autoimmune disease in MRL/Ipr mice is characterized by autoantibody production, vasculitis, arthritis, and glomerulonephritis that is the major cause of death (Theofilopoulos, A. N., et al., "Adv. Immunol.", 37, 269, 1985; Cohen, P. L., et al., "Annu. Rev. Immunol.", 9, 243, 1991).
At 7 weeks of age, mice were treated twice a week with 1 mg of D-PAM, L-PAM or placebo […] administered intraperitoneally. […] Mice were observed daily for clinical signs of disease and for mortality and were bled every 2 weeks for determination of anti-DNA antibody production, while urine protein levels were determined on samples taken twice a week. […]

in vitro = in vitro ADME, mouse; settings: for remaining at 5 min / remaining at 20 min / remaining at 40 min / remaining at 1 h: mouse, serum
Procedure: The stability of the peptide compounds of formula (I) to proteolytic attack by proteases has been evaluated by High Performance Liquid Chromatography (HPLC).
Mouse sera were obtained by cutting a small section off tip of tail and collecting some blood drops. After collection, blood was incubated for 1 hour at 37° C. and then serum was removed from the clot by centrifugation at 1200 g for 20' at 4° C. Various amounts of peptide compounds of formula (I) were added to 50 μl of serum and the mixture was incubated at 37° C. for different periods of time. Afterwards, 2 μl of the reaction mixture were added to 50 μl of 0.1 M acetic acid in order to elute the peptide compound from serum immunoglobulins. Samples were then stored at -80° C. until use.
Analysis of samples was carried out on an Aquapore RP-8 column (30×2.1 mm I.D.), eluting the equilibrated column at a flow rate of 0.5 ml/min with a linear gradient of 0.1% trifluoracetic acid buffer containing increasing acetonitrile concentration from 5% to 60% in 35'. Elution was monitored by absorbance at 225 nm.

Balb/c mice = settings: mouse, in vivo
Procedure: The ability of the peptide compounds of formula (I) to evoke an antibody response has been evaluated by immunizing two groups of four Balb/c mice with 100 μg of D-PAM or L-PAM respectively by i.p. injection. After the first immunization, the same immunogen was administered for two subsequent boosts, blood samples were collected from each animal for monitoring antibody titers by an ELISA assay as follow.
Polystyrene microtiter plates (Falcon Cat. No 3912) were coated with a 50 μg/ml D-PAM and L-PAM conjugated to BSA (100 μl/well) in 0.1 M sodium carbonate buffer (pH 8.5) and incubated over night at 4° C. After washing the microtiter plates ten times with a 50 mM phosphate, 150 mM NaCI pH 7.2 buffer (PBS), the wells were saturated with 200 μl of PBS containing bovine serum albumin (BSA, Sigma Cat. No A-9418) for 1 hour at 37° C., to block the uncoated plastic surface. Plates were then washed again with PBS containing 0.05% Tween 20 (PBS-T), and filled with samples (100 μl/well) previously diluted with PBS-T containing 1% BSA (PBS-T-B). […] The color was allowed to develop for 30' and absorbances were read at 405 nm with an ELISA plate reader (Labsystems Multiskan Bichromatic). […]

MRL/Ipr mice [2] = experiment: Urine protein levels (dipstick) in mouse model of Systemic Lupus Erythematosus; format: in vivo; settings: for Mice with proteinuria level >1 g/L (%): 1 mg i.p. twice a week from 7 weeks of age
Procedure: as §1
(§2) At 7 weeks of age, mice were treated twice a week with 1 mg of D-PAM, L-PAM or placebo […] administered intraperitoneally. The treatment was stopped at 30 weeks of age. Mice were observed daily for clinical signs of disease and for mortality and were bled every 2 weeks for determination of anti-DNA antibody production, while urine protein levels were determined on samples taken twice a week.
Urine protein levels were determined by colorimetric analysis using dipsticks (Combur 7, Boehringer Mannheim, n. cat. 185515) according to protocols from the manufacturer (Wang et al., "Proc. Natl. Acad. Sci. USA", 93, 8563-8568, 1996).

MRL/Ipr mice [3] = experiment: Serum anti-DNA antibodies by ELISA in mouse model of Systemic Lupus Erythematosus; format: in vivo; settings: 1 mg i.p. twice a week from 7 weeks of age
Procedure: as §1, §2
Standard ELISA assay to measure the serum levels of anti-DNA antibodies was performed as follow. Microtiter plates (Costar, Cat. No 3590) were coated with a 10 μg/ml DNA (Sigma Cat. No D-8899) solution (100 μl/well) in 0.01 M phosphate buffer (pH 8.0) and incubated over night at 4° C. After washing the microtiter plates ten times with a 50 mM phosphate, 150 mM NaCl pH 7.2 buffer (PBS) containing 0.05% Tween (PBS-T), the wells were saturated with 200 μl of PBS-T containing fetal calf serum (1%) heat-inactivated 1 hour at 56° C. (PBS-T-FCS), and incubated for 2 hours at room temperature, to block the uncoated plastic surface. Plates were then washed again with PBS-T, and filled with samples (100 μl/well) previously diluted with PBS-T-FCS. After incubation for 2 hours at room temperature and subsequent washing, wells were filled with 100 μl of horseradish peroxidase labeled goat anti-mouse polyvalent immunoglobulins (IgG, IgA, IgM) (Sigma, Cat. No A-0412) solution diluted 1000 fold with PBS-T-FCS. The plates were then left to stand for 1 hour at room temperature, washed ten times and then filled with 150 μl of ophenylenediamine dihydrochloride (Sigma Cat. No P-6912) chromogenic substrate solution freshly prepared according to protocols from the manufacturer. The color was allowed to develop for 30' and the adsorbance at 450 nm were determined with an ELISA plate reader (Labsystems Multiskan Bichromatic).

MRL/Ipr mice [4] = experiment: Survival in mouse model of Systemic Lupus Erythematosus; format: in vivo; settings: 1 mg i.p. twice a week from 7 weeks of age
Procedure: as §1, §2
Coincident with ameliorating the clinical signs of severe immune complex nephritis, a dramatic prolongation of survival was observed.

SMILES	Glomerulonephropathic progression versus positive control group (in words) (MRL/Ipr mice [1])	remaining at 5 min (in vitro)	remaining at 20 min (in vitro)	remaining at 40 min (in vitro)	remaining at 1 h (in vitro)	Antibody titer (A 405) (Balb/c mice)	Onset of severe proteinuria versus untreated animals (in words) (MRL/Ipr mice [2]; 1 mg i.p. twice a week)	Mice with proteinuria level >1 g/L (%) (MRL/Ipr mice [2]; time 8 weeks)	Mice with proteinuria level >1 g/L (%) (MRL/Ipr mice [2]; time 13 weeks)	Mice with proteinuria level >1 g/L (%) (MRL/Ipr mice [2]; time 18 weeks)	Mice with proteinuria level >1 g/L (%) (MRL/Ipr mice [2]; time 23 weeks)	Mice with proteinuria level >1 g/L (%) (MRL/Ipr mice [2]; time 28 weeks)	Ig Anti-DNA titer (O.D.) fold increase (MRL/Ipr mice [3]; time 8 weeks)	Ig Anti-DNA titer (O.D.) fold increase (MRL/Ipr mice [3]; time 10 weeks)	Ig Anti-DNA titer (O.D.) fold increase (MRL/Ipr mice [3]; time 14 weeks)	Ig Anti-DNA titer (O.D.) fold increase (MRL/Ipr mice [3]; time 16 weeks)	Ig Anti-DNA titer (O.D.) fold increase (MRL/Ipr mice [3]; time 18 weeks)	Survival rate (%) (MRL/Ipr mice [4]; time 15 weeks)	Survival rate (%) (MRL/Ipr mice [4]; time 20 weeks)	Survival rate (%) (MRL/Ipr mice [4]; time 25 weeks)	also measured
C[C@H](O)[C@@H](NC(=O)[C@H](N)CCCNC(=N)N)C(=O)N[C@H](Cc1ccc(O)cc1)C(=O)NCCCC[C@H](NC(=O)[C@@H](Cc1ccc(O)cc1)NC(=O)[C@H](NC(=O)[C@H](N)CCCNC(=N)N)[C@H](C)O)C(=O)NCCCC[C@H](NC(=O)[C@H](CCCCNC(=O)[C@@H](Cc1ccc(O)cc1)NC(=O)[C@H](NC(=O)[C@H](N)CCCNC(=N)N)[C@H](C)O)NC(=O)[C@@H](Cc1ccc(O)cc1)NC(=O)[C@H](NC(=O)[C@H](N)CCCNC(=N)N)[C@H](C)O)C(=O)NCC(=O)O [D-PAM, (H2 N-D-Arg-D-Thr-D-Tyr-CO)4 -(Lys)2 -Lys-Gly-OH]	evident reduction in the glomerulonephropathic progression	83%	73%	68%	63%	0.663 A 405	marked delay in the onset of severe proteinuria	0%	0%	0%	20%	30%	1.8 fold increase	2.5 fold increase	3.5 fold increase	3.5 fold increase	4.3 fold increase	100%	100%	90%	Stability to proteolytic attack (in words) (in vitro): more stable to proteolytic attack than L-PAM; Time until which treated mice did not develop proteinuria (MRL/Ipr mice [2]; 1 mg i.p. twice a week): 20 weeks; Survival rate (%) (MRL/Ipr mice [4]; time 30 weeks): 80%
C[C@@H](O)[C@H](NC(=O)[C@@H](N)CCCNC(=N)N)C(=O)N[C@@H](Cc1ccc(O)cc1)C(=O)NCCCC[C@H](NC(=O)[C@H](Cc1ccc(O)cc1)NC(=O)[C@@H](NC(=O)[C@@H](N)CCCNC(=N)N)[C@@H](C)O)C(=O)NCCCC[C@H](NC(=O)[C@H](CCCCNC(=O)[C@H](Cc1ccc(O)cc1)NC(=O)[C@@H](NC(=O)[C@@H](N)CCCNC(=N)N)[C@@H](C)O)NC(=O)[C@H](Cc1ccc(O)cc1)NC(=O)[C@@H](NC(=O)[C@@H](N)CCCNC(=N)N)[C@@H](C)O)C(=O)NCC(=O)O [L-PAM, (H2 N-L-Arg-L-Thr-L-Tyr-CO)4 -(Lys)2 -Lys-Gly-OH]	evident reduction in the glomerulonephropathic progression	57%	31%	19%	12%	0.462 A 405	marked delay in the onset of severe proteinuria	0%	0%	10%	50%	60%	1.8 fold increase	2.5 fold increase	3.6 fold increase	3.6 fold increase	4.5 fold increase	100%	90%	50%	Survival rate (%) (MRL/Ipr mice [4]; time 30 weeks): 40%
